Where “and” joins values, the source holds several entries; their conditions need not be identical. Equal values may be shown once. Read-outs that look alike come from different tables or passages of the source.
Tested on: L. major lysate proteins
Assay: Multitargeted bead mixture chemoproteomics, single concentration competition, proteome-wide
Assay type: binding
Conditions: for fold change / fold change relative to vehicle control: vehicle control = 1; for fold change relative to vehicle control: competition with free ligand

In the case of `CCCCCCOc1cccc(Cc2cnc(N)nc2N)c1` [compound 2], the “fold change vs vehicle control” value is reported as 1.17 and 1.18 and 1.07 and 1.04, the fold change (LINJ.05.0500 ATPASE ALPHA SUBUNIT) is reported as 1.11 and the fold change (LINJ.36.4570 PROTEASOME REGULATORY ATPASE SUBUNIT) is reported as 0.65. It also gave a fold change (LMJF.10.0510 GLYCEROL-3-PHOSPHATE DEH[…] ], GLYCOSOMAL) of 1.02, a fold change (LMJF.16.1610 PROHIBITIN) of 1.14 and a fold change (LMJF.18.1370 HEAT SHOCK PROTEIN, PUTATIVE) of 1.03. The fold change (LMJF.19.0300 RNA BINDING PROTEIN, PUTATIVE) was 0.93, the fold change (LMJF.21.0760 […]-ATP-ASE SUBUNIT 5, PUTATIVE) was 0.91 and the fold change (LMJF.22.0410 HY[…], CONSERVED) was 0.85. It also gave a fold change (LMJF.25.1770 ENOYL-COA REDUCTASE, PUTATIVE) of 1.1, a fold change (LMJF.26.0300 AMINOPEPTIDASE-LIKE PROTEIN) of 0.85 and a fold change (LMJF.26.2560 HY[…], CONSERVED) of 1.08. For the same molecule, the fold change (LMJF.27.1810 GLYCOSOMAL PHOSPHOENOLPYRUVATE CARBOXYKINASE, PUTATIVE) was 1.17, the fold change (LMJF.28.0490 PROPIONYL-COA CARBOXYLASE BETA CHAIN, PUTATIVE) was 0.63 and the fold change (LMJF.29.0940 HY[…], CONSERVED) was 1.21. It also gave a fold change (LMJF.29.1310 CARNITINE/CHOLINE ACETYLTRANSFERASE, PUTATIVE) of 1.04, a fold change (LMJF.29.1470 HY[…], CONSERVED) of 1.11 and a fold change (LMJF.29.2440 HYPOTHETICAL PROTEIN, CONSERVED) of 1. It also gave a fold change (LMJF.30.2350 SPHINGOSINE 1-PHOSPHATE LYASE) of 1.12, a fold change (LMJF.30.2970 GLYCERALDEHYDE 3-PHOSPHATE DEHYDROGENASE, GLYCOSOMAL) of 1.11 and a fold change (LMJF.30.3390 CAS/CSE/IMPORTIN DOMAIN PROTEIN, PUTATIVE) of 0.9. For the same molecule, the fold change (LMJF.31.2650 ACETOIN DEHYDROGENASE E3 COMPONENT-LIKE PROTEIN) was 1.02, the fold change (LMJF.31.2970 ACETYL-COA CARBOXYLASE, PUTATIVE) was 0.91 and the fold change (LMJF.33.1030 HYPOTHETICAL PROTEIN, CONSERVED) was 0.95. The fold change (LMJF.35.5040 polyadenylate-binding protein 1) was 1.22, the fold change (LMJF.35.5250 ALPHA-1,2-MANNOSYLTRANSFERASE, PUTATIVE) was 0.99 and the fold change (LMJF.36.5100 HY[…], CONSERVED) was 1.03. For the same molecule, the fold change (LMJF.[…] RIBOSOMAL PROTEIN S7, PUTATIVE) was 1.35, the “fold change vs vehicle control” value (protein LINJ.03.0940 HY[…], CONSERVED) was 1.19 and the “fold change vs vehicle control” value (protein LINJ.09.0030 HYPOTHETICAL PROTEIN, CONSERVED) was 0.91. The “fold change relative to vehicle control” value (protein LINJ.11.0780 40S RIBOSOMAL PROTEIN S21, PUTATIVE) was 1.25, the fold change (protein LINJ.13.0990 […] SUBUNIT 2, PUTATIVE) was 1.04 and the “fold change vs vehicle control” value (protein LINJ.13.1460 ALPHA TUBULIN) was 1.06. For the same molecule, the fold change (protein LINJ.15.0090 HEAT SHOCK PROTEIN HSLVU, ATPASE SUBUNIT HSLU, PUTATIVE) was 1.01, the “fold change relative to vehicle control” value (protein LINJ.16.1380 CYTOCHROME C, PUTATIVE) was 1.41 and the “fold change vs vehicle control” value (protein LINJ.19.0300 RNA BINDING PROTEIN) was 1.2. For the same molecule, the fold change (protein LINJ.20.0630 CYTIDINE TR[…], PUTATIVE) was 1.24, the “fold change relative to vehicle control” value (protein LINJ.20.1390 COATOMER BETA SUBUNIT, PUTATIVE) was 1.31 and the “fold change vs vehicle control” value (protein LINJ.21.1310 40S RIBOSOMAL PROTEIN S23, PUTATIVE) was 1.12. For the same molecule, the “fold change vs vehicle control” value (protein LINJ.23.1680 HY[…], CONSERVED) was 1.11, the “fold change vs vehicle control” value (protein LINJ.25.1170 […] OXIDASE VII, PUTATIVE) was 1.03 and the “fold change relative to vehicle control” value (protein LINJ.25.1220 RIBOSOMAL PROTEIN S25) was 1.24. For the same molecule, the “fold change vs vehicle control” value (protein LINJ.26.1080 HY[…], CONSERVED) was 1.11, the “fold change vs vehicle control” value (protein LINJ.27.1140 HY[…], CONSERVED) was 1.05 and the “fold change vs vehicle control” value (protein LINJ.28.1100 RIBOSOMAL PROTEIN S20, PUTATIVE) was 1.04. The “fold change relative to vehicle control” value (protein LINJ.28.1940 REPLICATION FACTOR A, 51KDA SUBUNIT, PUTATIVE) was 1.28, the fold change (protein LINJ.31.2350 ADP-RI[…], PUTATIVE) was 1.11 and the “fold change vs vehicle control” value (protein LINJ.34.0670 […]-ATP-ASE SUBUNIT 11, PUTATIVE) was 1.17. The fold change (protein LINJ.35.0410 40S RIBOSOMAL PROTEIN S3A, PUTATIVE) was 1.2, the “fold change relative to vehicle control” value (protein LINJ.35.0780 CBS DOMAIN PROTEIN, CONSERVED) was 0.96 and the “fold change vs vehicle control” value (protein LINJ.36.0510 HY[…], CONSERVED) was 1.08. The “fold change vs vehicle control” value (protein LINJ.36.3940 40S RIBOSOMAL PROTEIN S27-1, PUTATIVE) was 0.95, the fold change (protein LINJ.36.4180 HS1VU COMPLEX PROTEOLYTIC SUBUNIT-LIKE) was 0.97 and the fold change (protein LINJ.36.7350 […] OXIDASE SUBUNIT I) was 1.03. For the same molecule, the fold change (protein LMJF.01.0520 LONG-CHAIN-FATTY-ACID-COA LIGASE, PUTATIVE) was 0.98, the “fold change vs vehicle control” value (protein LMJF.02.0460 HY[…], CONSERVED) was 1.06 and the “fold change vs vehicle control” value (protein LMJF.03.0230 LONG CHAIN FATTY ACYL COA SYNTHETASE, PUTATIVE) was 1.18. The “fold change vs vehicle control” value (protein LMJF.03.0630 HYPOTHETICAL PROTEIN, CONSERVED) was 1, the fold change (protein LMJF.05.0780 HY[…], CONSERVED) was 1.13 and the fold change (protein LMJF.06.0010 HISTONE H4) was 1.16. For the same molecule, the fold change (protein LMJF.06.0140 PROTEASOME BETA 6 SUBUNIT, PUTATIVE) was 0.93, the fold change (protein LMJF.06.0650 […], PUTATIVE) was 1.08 and the “fold change vs vehicle control” value (protein LMJF.08.0510 RIBOSE-PHOSPHATE PYROPHOSPHOKINASE, PUTATIVE) was 1.01. The “fold change vs vehicle control” value (protein LMJF.08.0550 TRANSLATION INITIATION FACTOR-LIKE PROTEIN) was 1.1, the “fold change vs vehicle control” value (protein LMJF.08.1100 HY[…], CONSERVED) was 1.08 and the “fold change relative to vehicle control” value (protein LMJF.09.1120 MITOCHONDRIAL RNA BINDING PROTEIN 2,MRP2, GBP25) was 1. The “fold change vs vehicle control” value (protein LMJF.09.1260 HY[…], CONSERVED) was 1.11, the fold change (protein LMJF.10.1010 NUCLEOSIDE PHOSPHORYLASE-LIKE PROTEIN) was 0.94 and the fold change (protein LMJF.10.1240 HYPOTHETICAL PROTEIN, CONSERVED) was 0.79. The “fold change vs vehicle control” value (protein LMJF.11.0130 NGG1 I[…] 3-LIKE PROTEIN) was 1.06, the “fold change vs vehicle control” value (protein LMJF.11.0240 […] 7 SUBUNIT, PUTATIVE) was 1.02 and the fold change (protein LMJF.11.1050 PRETRA[…], ALPHA SUBUNIT, PUTATIVE) was 1.27. The “fold change vs vehicle control” value (protein LMJF.11.1110 60S RIBOSOMAL PROTEIN L28, PUTATIVE) was 1.71, the “fold change vs vehicle control” value (protein LMJF.12.0210 […] […]1L8 3, PUTATIVE) was 0.96 and the “fold change vs vehicle control” value (protein LMJF.12.0280 ORNITHINE DECARBOXYLASE, PUTATIVE) was 0.92. For the same molecule, the “fold change vs vehicle control” value (protein LMJF.13.0450 HYPOTHETICAL PROTEIN, CONSERVED) was 0.94, the “fold change vs vehicle control” value (protein LMJF.13.0870 MIT[…] ALPHA SUBUNIT, PUTATIVE) was 1.12 and the “fold change vs vehicle control” value (protein LMJF.14.0130 INOSINE-GUANINE NUCLEOSIDE HYDROLASE, PUTATIVE) was 1. The fold change (protein LMJF.14.0310 PROTEASOME ALPHA 3 SUBUNIT, PUTATIVE) was 0.96, the fold change (protein LMJF.14.0650 FATTY ACID ELONGASE, PUTATIVE) was 1.09 and the fold change (protein LMJF.14.0660 FATTY ACID ELONGASE, PUTATIVE) was 1.14. For the same molecule, the fold change (protein LMJF.14.0705 FATTY ACID ELONGASE, PUTATIVE) was 0.94, the fold change (protein LMJF.14.0740 FATTY ACID ELONGASE, PUTATIVE) was 1.13 and the “fold change relative to vehicle control” value (protein LMJF.14.1120 KINESIN K39, PUTATIVE) was 1.12. The “fold change vs vehicle control” value (protein LMJF.15.0230 LYSYL-TRNA SYNTHETASE, PUTATIVE) was 1.06, the “fold change vs vehicle control” value (protein LMJF.15.0280 RIBONUCLEOPROTEIN P18, MIT[…], PUTATIVE) was 1.12 and the fold change (protein LMJF.15.1010 GLUTAMATE DEHYDROGENASE) was 1.12. The “fold change relative to vehicle control” value (protein LMJF.16.0520 HYPOTHETICAL PROTEIN, CONSERVED) was 2.05, the fold change (protein LMJF.16.0540 ASPARTATE […], PUTATIVE) was 1.05 and the “fold change vs vehicle control” value (protein LMJF.16.0950 SUCROSE-PHOSPHATE SYNTHASE-LIKE PROTEIN) was 1.27. For the same molecule, the “fold change vs vehicle control” value (protein LMJF.16.0960 HYPOTHETICAL PROTEIN, CONSERVED) was 0.64, the fold change (protein LMJF.16.1180 COATOMER DELTA SUBUNIT-LIKE PROTEIN) was 1.05 and the fold change (protein LMJF.17.0010 HYPOTHETICAL PROTEIN, CONSERVED) was 0.79. The “fold change vs vehicle control” value (protein LMJF.18.0510 ACONITASE, PUTATIVE) was 1.1, the “fold change vs vehicle control” value (protein LMJF.18.0890 RAB7 GTP BINDING PROTEIN, PUTATIVE) was 0.93 and the fold change (protein LMJF.18.1130 RAS-RELATED PROTEIN RAB-5, PUTATIVE) was 0.97. For the same molecule, the fold change (protein LMJF.19.1120 […]-ATP-ASE SUBUNIT, PUTATIVE) was 1.02, the “fold change vs vehicle control” value (protein LMJF.19.1160 HY[…], CONSERVED) was 1.14 and the “fold change vs vehicle control” value (protein LMJF.19.1530 PEPT[…]-LIKE PROTEIN) was 1.05. For the same molecule, the fold change (protein LMJF.20.0100 PHOSPH[…] C, GLYCOSOMAL) was 1.08, the “fold change vs vehicle control” value (protein LMJF.21.0720 HY[…], CONSERVED) was 1.29 and the fold change (protein LMJF.21.1250 ADENYLATE KINASE, PUTATIVE) was 0.9. The fold change (protein LMJF.21.1555 HY[…], CONSERVED) was 1.14, the fold change (protein LMJF.21.1580 HY[…], UNKNOWN FUNCTION) was 1.22 and the “fold change vs vehicle control” value (protein LMJF.21.1700 […] 2 SUBUNIT, PUTATIVE) was 1.01. The fold change (protein LMJF.22.0230 AMINO ACID PERMEASE, PUTATIVE) was 1.51 and the fold change (protein LMJF.22.0570 PROTEASOME REGULATORY ATPASE SUBUNIT 1, PUTATIVE) was 1.1.

Source: article PMC6199744, “Development of Chemical Proteomics for the Folateome and Analysis of the Kinetoplastid Folateome” (ACS Infectious Diseases, 2018)
